The results in this text go back to patent publication US11026880B2, “Extract of passionflower seeds and cosmetic, pharmaceutical, dermatological and nutraceutical compositions comprising same” (Laboratoires Expanscience, priority 2012, dated 2021).

The subject of one assay is Jurkat cells. Kind of assay: Lipid peroxidation in UV-irradiated Jurkat cells (C11-fluorine probe, flow cytometry). Particulars: UV + 50 μM BHT. It is filed as cell-based. As for the experimental part: The protective effect of passionflower hydrolysate on lipid peroxidation was evaluated in UV-irradiated Jurkat cells.
Jurkat cells were incubated for 45 minutes in the presence or absence of passionflower hydrolysate or the reference (50 μM BHT) and in the presence of the fluorescent probe specific for the measurement of lipid peroxides (C11-fluorine). This fluorescent probe is a lipid analog that integrates into membranes and whose fluorescence intensity decreases when peroxidized. The cells were then irradiated by UV (UVB 240 mJ/cm^2+UVA 3.5 J/cm^2) in the presence of passionflower hydrolysate or the reference. At the conclusion of the irradiation, the cells were incubated for 30 minutes at 37° C. prior to being analyzed by flow cytometry. The fluorescence intensity results obtained were expressed as a % of the irradiated control.
A general note: A flow cytometer gives signals particle by particle.

The test system of assay [1] is Normal human keratinocytes. Nature of the assay: Production of reactive oxygen species in keratinocytes under H2O2 stress (DCFH-DA probe). Format: cell-based. Particulars: for Amount of ROS DFU/OD540 (mean ± standard deviation): 24 hours preincubation, 100 μM H2O2 20 minutes. As for the experimental part: The antioxidant action of passionflower hydrolysate on oxidative stress generated by hydrogen peroxide (H2O2) in keratinocytes was evaluated by measuring the amount of reactive oxygen species produced. This test is based on the use of a probe (DCFH-DA) that breaks down and fluoresces in contact with reactive oxygen species (ROS). The fluorescence emitted will be thus proportional to the amount of ROS produced by the cell in response to oxidative stress. Normal human keratinocytes were preincubated for 24 hours in the presence of passionflower hydrolysate or the reference molecules: 10 μM quercetin or 500 μM vitamin C. The cells were then incubated for 1 hour in the presence of the probe DCFH-DA and then treated with 100 μM H2O2 for 20 minutes, still in the presence of passionflower hydrolysate or the reference molecules. The ROS assay was carried out by measuring the fluorescence emitted. The results were normalized to the number of living cells determined using a neutral red uptake assay carried out in parallel. The amount of ROS emitted is thus expressed as fluorescence density (DFU)/optical density resulting from the neutral red assay (OD540). The results were statistically analyzed by one-way analysis of variance followed by Tukey's test.

Usually inhibition stands for the drop in the measured response relative to a control, in per cent.

Molecules are shown by their SMILES.

Consider `Cc1cc(C(C)(C)C)c(O)c(C(C)(C)C)c1` [BHT], for which the “Protection (%) against lipid peroxidation” value in the assay on Jurkat cells is 31%. Besides, the “Amount of lipid peroxides (% of the irradiated control)” value in the assay with Jurkat cells (UVB 240 mJ/cm^2+UVA 3.5 J/cm^2) is recorded as 83 % of the irradiated control.

Regarding `O=C1O[C@H]([C@@H](O)CO)C(O)=C1O` [Vitamin C, vitamin C], in assay [1] (500 μM vitamin C), the “Amount of ROS DFU/OD540 (mean ± standard deviation)” value stood at 35997.820 ± 10389.067 DFU/OD540. In assay [1] (Homo sapiens, Keratinocyte, 500 μM vitamin C, 100 μM H2O2, read-out: Inhibition relative to the H2O2 control (ROS)), the inhibition at 500 µM was 87%.

With `O=c1c(O)c(-c2ccc(O)c(O)c2)oc2cc(O)cc(O)c12` [Quercetin, quercetin], in assay [1] (10 μM quercetin), the “Amount of ROS DFU/OD540 (mean ± standard deviation)” value is given as 84549.570 ± 9476.724 DFU/OD540. Besides, the inhibition at 10 µM in assay [1] (Homo sapiens, Keratinocyte, 10 μM quercetin, 100 μM H2O2, read-out: Inhibition relative to the H2O2 control (ROS)) turned out to be 71%.
